We go through nine substances from US11684660B2, “Human PD1 peptide vaccines and uses thereof” (OHIO STATE INNOVATION FOUNDATION, priority 2017, dated 2023).

No end group written: not given here.

Experiment [1] relates to Nivolumab. The experiment can be described thus: BIACORE SPR binding to immobilized Nivolumab. The following applies: 1 μM peptide; for SPR response of peptide binding to immobilized Nivolumab: 1 min at 10 μl/min. Here is the method: (§1) 1 μM BSA was used as the negative control. The chip was regenerated by 10 mM Glycine-HCl, pH 2.5(FIG. 3E).
(§2) 1 μM of various PD-1 peptides were injected over the chip for 1 min at 10 μl/min followed by 1 min dissociation and then 1 min regeneration with 10 mM Glycine-HCl, pH 2.5 for each run.

For experiment [2], the target named is T1, extracellular domain of human PD-L1 (hPD-L1) (Homo sapiens, UniProt Q9NZQ7).
T1 construct: Recombinant hPD-L1 ectodomain was immobilized onto the gold surface of a CM5 sensor chip
T1 sequence (Q9NZQ7 19-238 limits assumed): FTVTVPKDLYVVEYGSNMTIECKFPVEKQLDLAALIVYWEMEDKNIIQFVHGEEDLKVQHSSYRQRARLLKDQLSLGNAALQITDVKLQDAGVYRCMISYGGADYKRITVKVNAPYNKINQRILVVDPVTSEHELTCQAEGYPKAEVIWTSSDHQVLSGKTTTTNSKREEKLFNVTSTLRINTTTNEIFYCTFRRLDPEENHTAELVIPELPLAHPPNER
The experiment can be described thus: BIACORE SPR binding to immobilized rhPD-L1. The following applies: 1 μM peptide; for SPR response of peptide binding to immobilized rhPD-L1: 1 min at 10 μl/min. Here is the method: To test the activity of all the selected peptides, surface plasmon resonance (SPR) spectroscopy (BIACORE™ T200, at […]) was used to measure their binding affinities to the extracellular domain of human PD-L1 (hPD-L1). Recombinant hPD-L1 ectodomain was immobilized onto the gold surface of a CM5 sensor chip by direct amine coupling.
as §1, §2

Experiment [3] deals with murine colon carcinoma CT26 tumor cells. As to the kind of experiment: CT26 tumor challenge in Balb/c mice immunized with PD-1 constructs. Format: in vivo. The following applies: for inhibition of tumor growth: Day 14, FIG. 15; for median terminal tumor weight: end of study; for median terminal tumor weight / median tumor size LWH, Day 19 / median tumor size LWW, Day 19 / median tumor size LWH, Day 14 / median tumor size LWW, Day 14: 5 mice/group; for difference in tumor size distribution versus controls: exact Wilcoxon rank-sum test, two-sided, unadjusted; for median tumor size LWH, Day 14: ½*length*width*height; for median tumor size LWW, Day 14: ½*length*width*width. The procedure: Immunocompetent Balb/c mice of 6-8 weeks of age were purchased from Charles River Laboratories, Wilmington, Mass. and housed in The Ohio State University's University Laboratory Animal Resources (ULAR) facilitates. Isoflurane was used to anaesthetize the animals before cells injection and termination. Pre-immune sera samples were taken from the mice then they were immunized with 100 μg of peptide emulsified in Montanide ISA 720 (Seppic, Paris, France) and nor-MDP adjuvant (N-acetyl-glucosamine-3 yl-acetyl L-alanyl-D-isoglutamine). Mice received booster immunizations 3 and 6 weeks after the first. Several test sera samples were taken from the mice (FIG. 8).
10 days after the second boost, mice were inoculated with […] murine colon carcinoma CT26 tumor cells subcutaneous on the right flank. Tumor growth was monitored three times a week and sera samples were taken weekly and upon sacrifice of the animal. Control mice on day 0 were engrated with 1×10^5 CT26 tumor cells subcutaneous and received. The animals received 150 μg injections of anti-mouse antibodies directed against PD-1. Mice were monitored and scored for the formation of palpable tumors twice weekly and sacrificed if tumors became necrotic or exceeded the predetermined size of 2,000 mm3. Tumor diameters were measured twice a week. Tumor size was calculated according to the formula: V=[(length ×width2)/2]. Tumor volumes were measured in cubic millimeters with calipers and calculated with the following formula: A×B2×0.5, where A is the largest diameter, and B is the smallest diameter. All experiments were performed in accordance with the U.S. Public Health Service Policy on Humane Care and Use of Laboratory Animals and approved by the Ohio State University Institutional Animals Care and Use Committee and detailed in the accepted protocol
To assess performance of 4 different vaccine treatments on tumor growth, tumor size was measured periodically in mice, and the results were compared to those of positive and negative controls. There were 5 mice in each treatment group, each receiving the assigned MVF-peptide and then being inoculated with 1e5 CT26 (colon) tumor cells 10 days after the final boost of the treatment. Day 14 was considered the primary time point of interest, as the investigators believed waiting until day 19 allowed the tumors too much time to grow, resulting in similar sizes at that point of the experiment. Tumor size was measured in three ways: LWW (½*length*width*width) at all time points, LWH (½*length*width*height) at all time points, and terminal tumor weight at the end of the study. The mice treated with MVF-PD-a(45), group C, were sacrificed before day 19 due to the death of one mouse, so the comparisons can only be made between tumor size at day 14. Tumor size is in units of mm3 for LWW and LWH and grams for terminal tumor weight.
Due to small sample sizes in each group and inability to assume normality, the exact Wilcoxon rank-sum test was used to check for systematic differences between the distributions of tumor size at times 14 days and 19 days (FIGS. 12A-D and Tables 7-10). P-values given are for test comparing that column's control to the respective treatment, and are two-sided to account for the possibility of tumor size being systematically larger or smaller between treatment and control. As this is preliminary data, the p-values are not adjusted for multiple comparisons. Overall, there were few instances of significant differences between the distributions of a control and a treatment.
Immunocompetent Balb/c mice (5 mice/gp) of 6-8 weeks of age were immunized with 100 μg of peptide emulsified in Montanide ISA 720 (Seppic, Paris, France) and nor-MDP adjuvant (N-acetyl-glucosamine-3 yl-acetyl L-alanyl-D-isoglutamine). […]

The test system of experiment [4] is CD4+CD25+FoxP3+ Tregs. As to the kind of experiment: Immune-profiling of T cells in spleen and tumor by flow cytometry. The experiment is classed as in vivo, Balb/c mice. The procedure: CD4 and CD8 cells were determined by flow cytometry (gated on CD45+CD3+ cells). Foxp3+CD25+CD4 T regulatory cells were determined by intracellular staining. All CD4 and CD8 T cells were gated on CD45+CD3+ cells. Tregs were gated on CD45+CD3+CD4+ cells. Group A=control peptide, Group B=32-50; Group C=45-64; Group D=73-90; Group E=92-110; Group F=α-mouse PD-1 (positive control).
The tumor and tumor draining lymph nodes were collected for subsequent FACS analysis to study the immune response in mice. Cells suspensions were prepared from tissues either by mechanistic dissociation or by enzymatic digestion. The stained cells were analyzed with a LSR II flow cytometer (BD Biosciences) equipped with 3 excitation lasers at wavelengths 405, 488 and 633 nm. CD8+ T cells and CD4+CD25+ T cells from tumor leucocytes were purified either on a MACS column or FACSAria.
Flow cytometric analysis was performed to evaluate the expression of surface markers (CD45, CD3, CD4, CD8 and CD25) and transcription factor FoxP3 in splenocytes and tumor infiltrating T cells. Briefly, spleens were removed from mice and pressed through cell strainers, followed by a short incubation with red blood cells lysis buffer to lyse the red blood cells. Cells were then collected, washed, and resuspended in staining buffer (1% BSA in PBS). Similarly, tumors were removed from mice and pressed through cell strainers, followed by one wash with 37% percoll. The tumor cells were then washed with PBS and resuspended in staining buffer. The splenocytes and tumor cells were incubated with mAbs to the cell-surface markers for 30 min at 4° C. After washing twice with staining buffer, cells were fixed and permeabilized using Cytofix/Cytoperm solution for 60 min at 4° C. Cells were stained for FoxP3 for 30 min at 4° C. 80,000-100,000 live cell events were acquired on a FACSCanto (BD) and analyzed using FlowJo software (Tree Star, Inc.). To differentiate infiltrating cells from tumor cells, the tumor cells were first gated on CD45+ cells. Then the CD3+CD4+ and CD3+CD8+ cells were analyzed. Tregs were represented by CD4+CD25+FoxP3+ cells. […] Group E had the lowest Treg.

The subject of experiment [5] is human IgG. The experiment can be described thus: BIACORE SPR binding to immobilized human IgG. Conditions: 1 μM injected 3 min at 10 μl/min. The procedure:
126. […] 1 μM BSA was used as the negative control. The chip was regenerated by 10 mM Glycine-HCl, pH 2.5(FIG. 3E).

On to “CH3CONH-DFHMSVVRARRNDSGTYL-CONH2 (Ac-DFHMSVVRARRNDSGTYL-NH2) [AC-PD-1 (73-90)]”, for which the “binding to immobilized Nivolumab (in words)” value in experiment [1] is “bind”. Moreover, the “binding to immobilized rhPD-L1 (in words)” value in experiment [2] is listed as “bind”.

On to “CH3CONH-GAISLAPKAQIKESLRAEL-CONH2 (Ac-GAISLAPKAQIKESLRAEL-NH2) [AC-PD-1 (92-110)]”, for which, in experiment [1], the “binding to immobilized Nivolumab (in words)” value is “bind”. The “binding to immobilized rhPD-L1 (in words)” value in experiment [2] was “bind”.

On to “CH3CONH-KLAAFPEDRSQPGQDCRFR-CONH2 (Ac-KLAAFPEDRSQPGQDCRFR-NH2) [AC-PD-1 (45-64)]”, for which the “binding to immobilized Nivolumab (in words)” value in experiment [1] is reported as “bind”. The “binding to immobilized rhPD-L1 (in words)” value in experiment [2] is “bind”.

For “H2N-DFHMSVVRARRNDSGTYL-CONH2 (H-DFHMSVVRARRNDSGTYL-NH2) [PD-1 (73-90)]”, in experiment [1], the “binding to immobilized Nivolumab (in words)” value is given as “much stronger binding”. For the same substance, the “binding to immobilized rhPD-L1 (in words)” value in experiment [2] is reported as “much stronger binding”.

Turning to “H2N-KLAAFPEDRSQPGQDCRFR-CONH2 (H-KLAAFPEDRSQPGQDCRFR-NH2) [PD-1 (45-64)]”, the “binding to immobilized Nivolumab (in words)” value in experiment [1] was “second stronger binder”. Further, the “binding to immobilized rhPD-L1 (in words)” value in experiment [2] was “second stronger binder”.

“KLLSLIKGVIVHRLEGVE-GPSL-DFHMSVVRARRNDSGTYL-CONH2 (KLLSLIKGVIVHRLEGVEGPSLDFHMSVVRARRNDSGTYL-NH2) [MVF-PD-1 (73-90)]”: in experiment [1], the “binding to immobilized Nivolumab (in words)” value is given as “bind” and the “SPR response of peptide binding to immobilized Nivolumab” value was 1000 RU. Moreover, in experiment [3], the “inhibition of tumor growth” value is reported as “not inhibitory”; the “median terminal tumor weight” value is 0.93 grams; the “difference in tumor size distribution versus controls” value (from here on “difference”) is on record as “no significant differences”; the “median tumor size LWH, Day 19” value came out at 768 mm3. For the same substance, in experiment [3], the “median tumor size LWW, Day 19” value is on record as 968 mm3; the “median tumor size LWH, Day 14” value is 346.5 mm3; the “median tumor size LWW, Day 14” value is recorded as 405 mm3. Moreover, in experiment [2], the “binding to immobilized rhPD-L1 (in words)” value is reported as “bind” and the “SPR response of peptide binding to immobilized rhPD-L1” value is “around 110 RU”.

In the case of “KLLSLIKGVIVHRLEGVE-GPSL-KLAAFPEDRSQPGQDCRFR-CONH2 (KLLSLIKGVIVHRLEGVEGPSLKLAAFPEDRSQPGQDCRFR-NH2) [MVF-PD-1 (45-64)]”, in experiment [4] (splenocytes, FIG. 10A), the “Treg population in spleen compared to Group A (negative control)” value is “increased Treg population”. The Tregs in tumor entry in experiment [4] (tumor infiltrating cells, FIG. 10B) is recorded as “increased Treg development in tumor microenvironment”. Moreover, in experiment [3], the “inhibition of tumor growth” value is given as “not inhibitory”; the “difference” value is “no significant differences”; the “median tumor size LWH, Day 14” value was 448 mm3; the “median tumor size LWW, Day 14” value is reported as 550 mm3. In experiment [2], the “binding to immobilized rhPD-L1 (in words)” value was “bind” and the “SPR response of peptide binding to immobilized rhPD-L1” value is “around 110 RU”.

Turning to “KLLSLIKGVIVHRLEGVE-GPSL-VLNWYRMSPSNQTDKLAAF-CONH2 (KLLSLIKGVIVHRLEGVEGPSLVLNWYRMSPSNQTDKLAAF-NH2) [MVF-PD-1 (32-50)]”, the “SPR response of peptide binding to immobilized Nivolumab” value in experiment [1] turned out to be 20 RU. Moreover, in experiment [3], the “median terminal tumor weight” value is 0.92 grams; the “difference” value was “no significant differences”; the “median tumor size LWH, Day 19” value is on record as 900 mm3; the “median tumor size LWW, Day 19” value came out at 1080 mm3. In experiment [3], the “median tumor size LWH, Day 14” value was 420 mm3 and the “median tumor size LWW, Day 14” value was determined as 486 mm3.

Turning to “rhPD-1: recombinant human PD-1 (hPD-1) ectodomain used to validate the sensor chip”, the “SPR response on immobilized human IgG (chip validation)” value in experiment [5] was “didn't show any binding signal”.
